Patent US20030170299A1, “Therapeutic methods for acute myeloid leukemia” (priority 2002, published 2003)
Read-outs that look alike come from different tables or passages of the source.

Key:
[1] = test system: KG-1 cells; experiment: Cellular uptake of calcein liposomes by flow cytometry, KG-1; format: cell-based, human; conditions: 6S-5MeTHF at 10 μM
Protocol: Folate-coated liposomes with the composition DSPC/Chol/folate-PEG-DSPE (60:40:0.1, m/m) and entrapping calcein, a membrane impermeable fluorescent dye, (f-L-calcein) were prepared, using a modification of the procedure described above. Non-targeted calcein-containing liposomes (L-calcein), with essentially the same composition, minus folate-PEG-DSPE, were used as a control. FR (+) cell lines, human KG-1, CHO-FR-β, and murine L1210JF, and the FR (−) cell lines KG-1a, CHO-K1 and L1210 were used. FR-β expression on the cells was determined by flow cytometry using a receptor-specific antibody. For liposome binding studies, the cells were treated in triplicate with f-L-calcein (folate-conjugated liposomes containing calcein) or free L-calcein at 20 μM in media. The cells were then washed 3× with cold PBS and examined by […] (FIG. 3).
Data on cellular uptake of calcein-containing liposomes in the FR (+) KG-1, L1210JF and CHO-FR-β cells, and FR (−) KG-1a, L1210 and CHO-K1 controls are summarized in Table 2 below.
In order to examine the potential effect of physiological folate on FR-mediated drug delivery in FR-β (+) cells, f-L-calcein uptake was measured in KG-1 cells in the presence of 0-10 μM 6S-5-methyltetrahydrofolate (6S-5MeTHF) using the same flow cytometry method as described above.

[2] = test system: FR-β; conditions: cited from earlier work
[3] = test system: FR-β expression
[4] = test system: acute promyelocytic leukemia (PML); conditions: PML patients; cited from earlier work
[5] = test system: KG-1 ascites tumor
Protocol: Effect of f-L-DOX treatment on the survival of SCID mice carrying KG-1 ascites tumor. SCID mice inoculated intraperitoneally with KG-1 cells that were treated with saline, free DOX, L-DOX or f-L-DOX, with or without co-injection of ATRA. Animal survival was recorded starting from the day of tumor cell inoculation.
The therapeutic efficacy of f-L-DOX in a human leukemia murine ascites xenograft model was further tested. Female CB.17 SCID (scid/scid, 18-22 g) mice were inoculated intraperitoneally with human AML KG-1 cells, which express FR-β, to generate ascites tumors. KG-1 cells (1×10^6) grown in folate-deficient RPMI1640 media supplemented with 20% FBS were injected into the mice intraperitoneally on day 0. […] Peritoneal exudate cells were collected by peritoneal lavage with 5 mL Hanks' balanced salt solution (HBSS), pelleted and resuspended in RPMI1640 media. […] The tumor cells were inoculated into 8 groups of 8 mice. Four of the groups received daily intraperitoneal injections of 10 mg/kg of ATRA on days 1 through 5. The following formulations were administered as intraperitoneal injections on days 1, 5, and 9 (in 50 μL): 1) saline, 2) free DOX (3 mg/kg), 3) L-DOX (5 mg/kg), 4) f-L-DOX (5 mg/kg), 5) saline+ATRA, 6) free DOX+ATRA, 7) L-DOX+ATRA, and 8) f-L-DOX+ATRA. The body weight and survival of the animals were monitored daily during the course of the study.

[6] = test system: FR-β expression; experiment: ATRA induction of FR-β in AML blasts from patient marrow (Western blot); format: cell-based, human; conditions: myeloid leukemia cells from patient bone marrow, in vitro, ATRA 1 μmol/L
Protocol: FIG. 5. ATRA induction of FR-β in AML blasts from patient marrow. Cells (1×10^6) were cultured and treated with or without ATRA (1 μmol/L) for 6 hours (A and B), 24 hours (C), or 5 days (D). The samples were obtained from separate patients with FAB-M2 (A and C) or FAB-M4 (B and D) type AML. Cell lysates were then examined by Western blot and the use of rabbit anti-FR-β- and AP conjugated antibodies.
In one study, FR-β expression was elevated up to 20-fold by ATRA in KG-1 myeloid leukemia cells in a dose-dependent and reversible manner in the absence of terminal differentiation or cell growth inhibition (FIG. 4). The retinoid-induced increase in FR-β expression occurred in these cells without causing terminal differentiation or growth inhibition of the cells. In addition, ATRA increased FR-β expression in vitro in myeloid leukemia cells from patient bone marrow (FIG. 5). ATRA-induction of FR-β occurred even though primary AML blast cells (M2 and M4 type AMLs) are known to be refractory to ATRA differentiation therapy. […] In addition, FR-β inducers can modulate FR-β expression in AML cells refractory to retinoid differentiation therapy.

[7] = test system: KG-1 cells; experiment: MTT cytotoxicity, KG-1; format: cell-based, human
Protocol: (§1) FR-targeted liposomal doxorubicin (f-L-DOX) was evaluated for in vitro cytotoxicity in both FR (+) and FR (−) leukemia cells using a standard cell survival assay (MTT assay). FR-targeted liposomal-doxorubicin (f-L-DOX) was prepared as described above. F-L-DOX in vitro cytotoxicity was evaluated in two FR (+) cell lines [KG-1, an FR-β (+) human AML cell line, and L1210JF, an FR (+) subline of L1210 murine acute lymphocytic leukemia cell line] and two FR (−) cell lines [KG-1a, an FR-β (−) subline of KG-1, and FR (−) L1210 cells] using the survival assay. The cells were treated in quadruplicate with serial dilutions of f-L-DOX, non-targeted control L-DOX, or free DOX. Cell viability was determined and IC50 values were calculated. For KG-1 and KG-1a cells, the MTT assay was repeated with cells cultured in media containing 1 μM ATRA for 5-days.

[8] = test system: L1210JF cells; experiment: MTT cytotoxicity, L1210JF; format: cell-based, murine; conditions: no ATRA
Protocol: as §1

[9] = test system: L1210JF ascites tumor; experiment: Survival of DBA/2 mice carrying L1210JF ascites tumor; format: in vivo, DBA/2J mice; conditions: i.p. on days 1, 5, 9; free DOX 3 mg/kg, L-DOX and f-L-DOX 5 mg/kg DOX
Protocol: The antileukemic therapeutic efficacy of f-L-DOX was evaluated in two FR (+) murine leukemia ascites tumor models. The first model consisted of DBA/2J mice with ascites tumors derived from intraperitoneally engrafted FR (+) murine lymphocytic leukemia L1210JF cells. Male mice (18-22 g, from Charles River, Wilmington, Mass.) were placed on a folate-deficient diet (AIN-93G from Dyets, Inc., PA) and for at least one week prior to leukemia cell inoculation. The mice, in groups of 8 animals, were injected intraperitoneally with 1×10^6 L1210JF cells on day 0. The animals then received three intraperitoneal injections (in 50 μL) of various drug formulations on days 1, 5, and 9. […] In the saline-treated group, no visible ascitic fluid began to develop until after one week.

[10] = test system: KG-1a cells; experiment: MTT cytotoxicity, KG-1a; format: cell-based, human
Protocol: as §1

[11] = test system: L1210 cells; experiment: MTT cytotoxicity, L1210; format: cell-based, murine
Protocol: as §1

[12] = test system: CMLs; conditions: in vivo; cited from earlier work
[13] = test system: FR-β (+) AML cells; experiment: [3H] folic acid binding to FR-β (+) AML cells; set-up: species or system human

For `CN1c2c(nc(N)[nH]c2=O)NC[C@@H]1CNc1ccc(C(=O)N[C@@H](CCC(=O)O)C(=O)O)cc1` [6S-5MeTHF, 6S-5-methyltetrahydrofolate], the “inhibition of f-L-calcein uptake” value [1] is given as “did not significantly inhibit” and the “affinity of FR-β lower than for folic acid” value [2] is given as roughly 35 ×.

In the case of `CC1=C(/C=C/C(C)=C/C=C/C(C)=C/C(=O)O)C(C)(C)CCC1` [ATRA, all-trans retinoic acid], the FR-β expression ([3]; KG-1 cells, flow cytometry, 5-day exposure to ATRA (1 μM)) is given as “significant increase”, the FR-β expression elevated ([3]; KG-1 myeloid leukemia cells, dose-dependent, reversible) is given as “up to 20 fold” and the Complete remission [4] is given as 72-95%. The survival ([5]; ATRA treatment in the absence of f-L-DOX or L-DOX) was “did not enhance survival” and the FR-β expression [6] was “increased”.

With `COc1cccc2c1C(=O)c1c(O)c3c(c(O)c1C2=O)C[C@@](O)(C(=O)CO)C[C@@H]3O[C@H]1C[C@H](N)[C@H](O)[C@H](C)O1` [Free DOX, doxorubicin] the IC50 ([7]; KG-1, FR-β (+), no ATRA, folate-free media) was 650 nM, the IC50 ([7]; KG-1, FR-β (+), pre-exposure to ATRA, folate-free media) was 630 nM and the IC50 ([7]; KG-1, no ATRA, media containing 1 mM folic acid) was 670 nM. It also gave an IC50 ([7]; KG-1, pre-exposure to ATRA, media containing 1 mM folic acid) of 680 nM, an IC50 ([8]; FR-α (+), folate-free media) of 860 nM and an IC50 ([8]; media containing 1 mM folic acid) of 870 nM. The dose-limiting toxicity ([5]; mice, results not shown) was greater than 3 mg/kg, the median survival time [9] was 28.5 days and the IC50 ([10]; FR (−), no ATRA, folate-free media) was 610 nM. The IC50 ([10]; FR (−), pre-exposure to ATRA, folate-free media) was 590 nM, the IC50 ([10]; no ATRA, media containing 1 mM folic acid) was 630 nM and the IC50 ([10]; pre-exposure to ATRA, media containing 1 mM folic acid) was 620 nM. The IC50 ([11]; L1210, FR (−), no ATRA, folate-free media) was 910 nM and the IC50 ([11]; L1210, no ATRA, media containing 1 mM folic acid) was 930 nM.

In the case of `CS(=O)(=O)O.Cc1ccc(NC(=O)c2ccc(CN3CCN(C)CC3)cc2)cc1Nc1nccc(-c2cccnc2)n1` [Gleevec™], the “effective against CMLs” value [12] is given as 90%.

In the case of `Nc1nc2ncc(CNc3ccc(C(=O)N[C@@H](CCC(=O)O)C(=O)O)cc3)nc2c(=O)[nH]1` [folic acid], the “[3H] folic acid bound” value [13] is reported as 0.72±0.13 pmoles per 10^6 cells.
